Assay results taken from patent US12558338B2, “Pharmaceutical composition” (SUNSHINE LAKE PHARMA CO., LTD., priority 2019, dated 2026).

Assay: Solubility in water
Type: physicochemical
Settings: compared with memantine hydrochloride

solubility: almost insoluble in water
SMILES: CC12CC3CC(C)(C1)CC(NC(=O)OCOC(=O)c1ccccc1)(C3)C2 [formula A, ((((1r,3R,5S,7r)-3,5-dimethyladamantan-1-yl)carbamoyl)oxy)methyl benzoate]
